The values that follow come from DBAASP.

Common to all, as to assay: ≥ marks a high value that may be exact or a test limit, other limits are often not marked, values filed in µg/mL are converted to µM
Test [1] concerns Escherichia coli ATCC 11775.
Test [2] deals with Staphylococcus aureus ATCC 12600.
Test [3] deals with Micrococcus luteus ATCC 49732.
Test [4] has as its system Escherichia coli MG1655.
The test system of test [5] is Staphylococcus aureus ATCC 43300.
Test [6] relates to Bacillus subtilis MTCC 14416.
The test system of test [7] is Vibrio cholerae.
Test [8] concerns Pseudomonas aeruginosa ATCC 27853.
The test system of test [9] is Staphylococcus aureus MTCC 9542.
Test [10] relates to Micrococcus luteus.
For test [11], the system named is Bacillus subtilis ATCC 23857.
Test [12] concerns Corynebacterium glutamicum ATCC 13032.
For test [13], the system named is Aureobasidium pullulans.
The test system of test [14] is Bacillus megaterium.
Test [15] has as its system Staphylococcus aureus ATCC 9144.
In test [16] the test system is Escherichia coli ATCC 25922.
Test [17] has as its system Candida albicans ATCC 10231.
Test [18] relates to Candida albicans ATCC 14053.
The test system of test [19] is Enterococcus faecalis ATCC 29212.
Test [20] concerns Escherichia coli K12 MG1655.
In test [21] the test system is Bacillus subtilis 168 HT.

≈ marks a conversion by molar mass, not a printed value.

The term MIC denotes the lowest concentration that inhibits growth of the organism. Lower therefore signals greater potency. As for `CC[C@H](C)[C@H](NC(=O)[C@H](C)NC(=O)[C@H](C)NC(=O)[C@H](CCC(=O)O)NC(=O)[C@H](CCCCN)NC(=O)CNC(=O)[C@@H](NC(=O)[C@H](CC(N)=O)NC(=O)[C@H](CCCCN)NC(=O)[C@@H](NC(=O)[C@@H](NC(=O)[C@H](CO)NC(=O)[C@H](Cc1c[nH]c2ccccc12)NC(=O)[C@H](CC(C)C)NC(=O)CN)[C@@H](C)O)[C@@H](C)CC)C(C)C)C(=O)N[C@@H](C)C(=O)N[C@@H](C)C(=O)NCC(=O)N[C@@H](CCCCN)C(=O)N[C@@H](C)C(=O)N[C@H](C(=O)N[C@@H](CC(C)C)C(=O)NCC(=O)N[C@@H](CO)C(=O)N[C@@H](CC(C)C)C(N)=O)C(C)C` [GLWSTIKNVGKEAAIAAGKAVLGSL], the MIC was determined as 0.5 µM (≈ 1.23 µg/mL) in [1], 0.5 µM (≈ 1.23 µg/mL) in [2] and 2 µM (≈ 4.91 µg/mL) in [3].

As for `CC[C@H](C)[C@@H]1NC(=O)[C@H](CCCCN)NC(=O)[C@@H](NC(=O)[C@H](CC(C)C)NC(=O)[C@@H](NC(=O)[C@H](CCC(N)=O)NC(=O)[C@@H]2CCCN2C(=O)[C@H](CC(C)C)NC(=O)[C@H](Cc2ccccc2)NC(=O)[C@H](CC(N)=O)NC(=O)[C@H](C)NC(=O)[C@H](C)NC(=O)[C@H](CC(C)C)NC(=O)CNC(=O)[C@H](C)NC(=O)[C@@H](NC(=O)[C@@H](N)Cc2cnc[nH]2)[C@@H](C)CC)[C@@H](C)CC)CSSC[C@@H](C(N)=O)NC(=O)[C@H](CCCCN)NC(=O)[C@H](CCCN=C(N)N)NC(=O)[C@H](C)NC1=O` [HIAGLAANFLPQILCKIARKC], the minimal inhibitory concentration (MIC) in [4] is 21.9 µM (≈ 49.9 µg/mL); in test [5], 43.8 µM (≈ 99.9 µg/mL); in test [6] it was 21.9 µM (≈ 49.9 µg/mL); in test [7], 11 µM (≈ 25 µg/mL); in test [8] it was greater than 43.8 µM; in test [9], no less than 43.8 µM.

As for `C[C@H](NC(=O)[C@H](CCCN=C(N)N)NC(=O)[C@H](Cc1c[nH]c2ccccc12)NC(=O)[C@H](Cc1c[nH]c2ccccc12)NC(=O)[C@H](Cc1c[nH]c2ccccc12)NC(=O)[C@H](Cc1c[nH]c2ccccc12)NC(=O)[C@H](CCCN=C(N)N)NC(=O)[C@H](CCCN=C(N)N)NC(=O)CN)C(=O)N[C@@H](CCCN=C(N)N)C(N)=O` [GRRWWWWRAR], the MIC in test [10] is 10.3 µM (≈ 15.6 µg/mL); in test [11] it was 5.15 µM (≈ 7.8 µg/mL); in [8] it was 20.7 µM (≈ 31.3 µg/mL); in test [12], 5.15 µM (≈ 7.8 µg/mL); in test [13], no less than 41.2 µM; in test [14], 2.57 µM (≈ 3.9 µg/mL). For the same molecule, the MIC in test [15] was no less than 41.2 µM; in [16] it was 10.3 µM (≈ 15.6 µg/mL); in test [17], 41.2 µM (≈ 62.5 µg/mL).

As to `CC(C)[C@H](NC(=O)[C@H](C)NC(=O)[C@@H](NC(=O)CNC(=O)[C@@H]1CCCN1)[C@@H](C)O)C(=O)N[C@@H](C)C(=O)N[C@@H](CCCCN)C(=O)O` [PGTAVAK], the MIC in test [18], in [1], in [2] and in test [3] was no less than 97 µM throughout.

As to `CC[C@H](C)[C@H](N)C(=O)N[C@@H](C)C(=O)NCC(=O)N[C@@H](CC(C)C)C(=O)N[C@@H](C)C(=O)N[C@@H](C)C(=O)N[C@@H](CC(N)=O)C(=O)N[C@@H](Cc1ccccc1)C(=O)N[C@@H](CC(C)C)C(=O)N1CCC[C@H]1C(=O)N[C@@H](CCC(N)=O)C(=O)N[C@H](C(=O)N[C@@H](CC(C)C)C(=O)N[C@H]1CSSC[C@@H](C(N)=O)NC(=O)[C@H](CCCCN)NC(=O)[C@H](CCCN=C(N)N)NC(=O)[C@H](C)NC(=O)[C@H]([C@@H](C)CC)NC(=O)[C@H](CCCCN)NC1=O)[C@@H](C)CC` [IAGLAANFLPQILCKIARKC], the MIC in [4] is 23.3 µM (≈ 49.9 µg/mL); in test [5], greater than 46.6 µM; in test [6], no less than 46.6 µM; in [7] it was 11.7 µM (≈ 25 µg/mL); in test [8], greater than 46.6 µM; in [9], 11.7 µM (≈ 25 µg/mL).

On to `CC(C)C[C@H](NC(=O)[C@H](CC(C)C)NC(=O)[C@H](CC(C)C)NC(=O)[C@@H]1CCCN1C(=O)[C@H](CCCN=C(N)N)NC(=O)[C@H](CCCN=C(N)N)NC(=O)CN)C(=O)N[C@@H](CCCN=C(N)N)C(=O)N[C@@H](C)C(=O)N[C@@H](CCCN=C(N)N)C(N)=O` [GRRPLLLRAR], for which the MIC is no less than 51.8 µM in test [10]; no less than 207 µM in test [11]; greater than 207 µM in test [8]; 25.9 µM (≈ 31.3 µg/mL) in test [12]; no less than 207 µM in test [13]; 6.46 µM (≈ 7.79 µg/mL) in test [14]. The results for the MIC in [15], in test [16] and in [17] were no less than 207 µM, greater than 207 µM and 104 µM (≈ 125 µg/mL), respectively.

On to `CC(C)[C@H](NC(=O)[C@H](CCCCN)NC(=O)[C@H](C)NC(=O)[C@@H](NC(=O)[C@@H](NC(=O)[C@H](C)NC(=O)[C@H](CCCN=C(N)N)NC(=O)[C@H](Cc1c[nH]c2ccccc12)NC(=O)[C@H](Cc1c[nH]c2ccccc12)NC(=O)CN)[C@@H](C)O)C(C)C)C(=O)N[C@@H](CCCN=C(N)N)C(=O)N[C@@H](CCCCN)C(N)=O` [GWWRATVAKVRK], for which the MIC was 25 µM (≈ 36.4 µg/mL) in test [8]; 0.8 µM (≈ 1.17 µg/mL) in [12]; 25 µM (≈ 36.4 µg/mL) in test [13]; no less than 100 µM in [15]; 6.3 µM (≈ 9.18 µg/mL) in [16]; 25 µM (≈ 36.4 µg/mL) in test [17].

With `CC(C)[C@H](NC(=O)[C@H](C)NC(=O)[C@@H](NC(=O)[C@H](C)NC(=O)[C@@H]1CCCN1)[C@@H](C)O)C(=O)N[C@@H](Cc1ccccc1)C(=O)N[C@@H](CCCCN)C(=O)O` [PATAVFK], the MIC in [18] is no less than 303 µM; in test [1], no less than 101 µM; in [2] it was no less than 303 µM; in [3], no less than 910 µM.

For the molecule `CC[C@H](C)[C@@H]1NC(=O)[C@H](CCCCN)NC(=O)[C@@H](NC(=O)[C@H](CC(C)C)NC(=O)[C@@H](NC(=O)[C@H](CCC(N)=O)NC(=O)[C@@H]2CCCN2C(=O)[C@H](CC(C)C)NC(=O)[C@H](Cc2ccccc2)NC(=O)[C@H](CC(N)=O)NC(=O)[C@H](C)NC(=O)[C@H](C)NC(=O)[C@H](CC(C)C)NC(=O)CNC(=O)[C@H](C)NC(=O)[C@@H](NC(=O)[C@@H](N)CCCCN)[C@@H](C)CC)[C@@H](C)CC)CSSC[C@@H](C(N)=O)NC(=O)[C@H](CCCCN)NC(=O)[C@H](CCCN=C(N)N)NC(=O)[C@H](C)NC1=O` [KIAGLAANFLPQILCKIARKC], the MIC in test [4] is 11 µM (≈ 25 µg/mL); in test [5], greater than 44 µM; in test [6] it was no less than 44 µM; in test [7], 11 µM (≈ 25 µg/mL); in test [8], greater than 44 µM; in test [19], 22 µM (≈ 49.9 µg/mL). This molecule registered a minimum inhibitory concentration (MIC) in test [9] of 5.5 µM (≈ 12.5 µg/mL).

Turning to `CC[C@H](C)[C@H](NC(=O)[C@H](CCC(N)=O)NC(=O)[C@@H](NC(=O)[C@@H](N)CC(C)C)C(C)C)C(=O)NCC(=O)N[C@H](C(=O)N[C@@H](CCCCN)C(=O)N[C@H](C(=O)N[C@H](C(=O)NCC(=O)N[C@H](C(=O)NCC(=O)N[C@@H](CCCN=C(N)N)C(=O)N[C@@H](CC(N)=O)C(=O)N[C@@H](Cc1ccc(O)cc1)C(=O)N[C@@H](C)C(=O)N[C@@H](C)C(=O)N[C@@H](Cc1cnc[nH]1)C(=O)O)C(C)C)C(C)C)[C@@H](C)CC)[C@@H](C)O` [LVQIGTKIVGVGRNYAAH], the MIC in [20] and in test [21] was no less than 33.8 µM each time.
